Key:
[1] = tested on: TNFα production by peripheral blood mononucleocytes stimulated with LPS; assay: Inhibition of TNFα production by human monocytes stimulated with LPS; assay type: cell-based; details: LPS 10 ng/ml, 24 hours, ELISA
Procedure: The compounds were dissolved in DMSO at a final concentration of 10 mM.
The solutions for the assay were prepared by diluting the mother solutions in RPMI 1640 with the addition of 1% FCS and 0.01% DMSO and were filtered with 0.2 μm filters.
The peripheral blood mononucleocytes were obtained from blood from healthy donors by separation in a Ficoll-Hypaque gradient [C. G. Figdor, et al. Blood, 1982, 60: 46-53]. The cells were sown in 96-well plates, at a concentration of approx. 500,000 cells per well, suspended in RPMI 1640 containing 1% FCS and were incubated at 37° C. in the presence of different concentrations (from 10^−6 to 10^−11M) of the compounds to be investigated. After 1 hour, LPS was added (at a final concentration of 10 ng/ml; obtained from E. coli 055:B5) and the plates were incubated at 37° C. for a further 24 hours. At the end of this period, the supernatants were collected and used for the determination of TNFα content by means of ELISA (DuoSet ELISA kit; R&D Systems, Minneapolis, Minn., USA).
The concentration of TNFα was calculated using a calibration curve and the IC50 values (the concentration which brings about 50% inhibition of the production of the cytokine) were calculated from the curve obtained by plotting the percentage inhibition values for each individual concentration of the compound under investigation.

[2] = tested on: human hepatoma cell line Hep-G2; assay: Cytotoxicity towards tumour cells in vitro (Cell Titer 96 formazane colorimetric assay); assay type: cell-based; details: 48 h, percentage inhibition of the formation of formazane relative to the control
Procedure: The cytotoxicity of some compounds described in the preceding Examples was evaluated in vitro on human hepatoma cell line Hep-G2, by means of a commercial colorimetric method (Cell Titer 96® Aque ous One Solution Cell Proliferation Assay—Promega); the method determines the number of viable cells on the basis of their capacity to metabolise a tetrazolium salt producing formazane. The quantity of formazane produced is proportional to the number of viable cells.
The Hep-G2 cells are distributed 96 well microplates at a density of 4×10^4 cells/well (100 μl), in M199 medium containing 10% foetal bovine serum and supplements (complete medium).
After 24 hours' incubation (37° C., 5% CO2, 90% humidity), the cells are washed once and the medium is replenished with 200 μl of complete medium containing the substances to be tested at the final concentration of 10^−5, 10^−6 and 10^−7M. The test is performed in triplicate.
The plates are incubated for a further 48 h, at the end of which 100 μl of medium are removed and 20 μl/well of staining solution are added in accordance with the supplier's instructions. Optical density (λ=490 nm) is read after 1 hour's incubation at 37° C. using a plate reader (Victor2—Wallac Perkin Elmer).

Compound	IC50 ([1]; Monocyte) [nM]	Cytotoxicity at 10^−5 M [2] [%]	Cytotoxicity at 10^−6 M [2] [%]	IC50 [1] [nM]
O=C(NO)c1ccc(NC(=O)[C@@H](Cc2ccc3ccccc3c2)NC(=O)c2cncc(Br)c2)cc1 [Example 2n, 5-Bromo-N-[1(R)-(4-hydroxycarbamoyl-phenylcarbamoyl)-2-naphthalen-2-yl-ethyl]-nicotinamide]	6.8	68.2	15.9	–
O=C(NO)c1ccc(NC(=O)[C@H](Cc2ccc(C(F)(F)F)cc2)NC(=O)c2ccc3ccccc3c2)cc1 [Example 2w, N-[1(S)-(4-hydroxycarbamoyl-phenylcarbamoyl)-2-(4-trifluoromethyl-phenyl)-ethyl]-amide of naphthalene-2-carboxylic acid]	–	65.7	25.3	23.7
O=C(NO)c1ccc(NC(=O)[C@H](Cc2ccc(-c3ccccc3)cc2)NC(=O)c2cncc(Br)c2)cc1 [Example 2p, 5-Bromo-N-[1(S)-(4-hydroxycarbamoyl-phenylcarbamoyl)-2-biphenyl-4-yl-ethyl]-nicotinamide]	42	61.7	10.5	–
CC(=O)N[C@H](C(=O)Nc1ccc(C(=O)NO)cc1)C1Cc2ccccc2C1 [Example 2c, 4-(2(S)-Acetylamino-2-indan-2-yl-acetylamino)-N-hydroxy-benzamide]	55.9	78.3	28.5	–

Reference: patent US7635788B2, “Alpha-amino acid derivatives with antiinflammatory activity” (Italfarmaco SpA, priority 2004, dated 2009)
